Source: patent publication US8754058B2, “Inhibitors of FAM3B gene, inhibitor compositions, inhibiting methods and applications of inhibitors in preparing pharmaceuticals” (Suzhou Ribo Life Science Company, Ltd., priority 2009, dated 2014)
Entries after “also recorded” stand apart in the source; their conditions may differ. d = 2'-deoxy (DNA); r = 2'-OH (RNA)

Assays:
[1] = tested on: FAM3B protein in HepG2 cells; assay: Western blot of FAM3B protein in transfected HepG2 cells; format: cell-based, human; conditions: 48 hours after transfection, Western blot grayscale, FIG. 5
Procedure: The cells are digested with 0.25% trypsin 24 hours before the transfection, then the cells are counted and inoculated into the 24 well plate in a density of 1×10^5 cells/ml, and 1000 μl cells are added in each well. Lipofectamine™ 2000 liposome from Invitrogen Company is used for the transfection with the small interfering nucleotides obtained from example 1 (FAM3B-1 to FAM3B-32) respectively, and unrelated small interfering nucleotide (the sense strand: 5-[…]-3 (SEQ ID NO: 78); the antisense strand: 5-ACGUGACACGUUC GGAGAATT-3 (SEQ ID NO: 79)) is used as the negative control.
(4) Inhibition on FAM3B Protein Expression by Using Small Interfering Nucleotides
After the cells transfected according to step (2) in example 6 are cultured for 48 hours, the cells are disrupted by using the protein lysis buffer and the total proteins are extracted, and the protein sample is examined according to the standard procedure for Western blot. For the detection of FAM3B protein, the membrane is incubated with the rabbit derived anti-FAM3B antibody (R&D systems), the secondary antibody is the peroxidase labelled horse anti-rabbit antibody (Zhongshan Jinqiao); the antibody for detecting the internal reference β-actin: the primary antibody is mouse derived anti-β-actin antibody, and the secondary antibody is the peroxidase labelled goat anti-mouse antibody, and the results are subjected to grayscale comparison shown as FIG. 5.

HepG2 cells = assay: inhibition of fat-emulsion-induced lipid accumulation in HepG2 cells, oil red O staining; format: cell-based, human; conditions: 20% fat emulsion induction 48 hours, 50 nM, 48 hours after transfection, FIG. 6
Procedure: (1) Induction of Lipid Accumulation in HepG2 Cells
The cells are inoculated in the 24 well culture plate in a density of 2×10^4 cells/1 mL, 20% fat emulsion for medical use is added in each well in a dosage of 2 ml/L, and the cells are cultured for 48 hours. The culture is stopped and oil red O staining is carried out to observe the lipids in the cells. The operations are as followed: the cells are rinsed with PBS for three times and 5 minutes each; then the cells are fixed with 50% isopropanol for 1 min and stained with oil red O for 10 min; the cells are rinsed with distilled water for three times and 1 min each; the cells are observed and photographed under a microscope. Normally, the cells might be not stained or only slightly stained, large amount of lipids accumulated in the cells after induction with fat emulsion for medical use, and red lipid droplets can be detected under the microscope after the staining with oil red O.
(2) Determination of the Inhibitory Effects on Lipid Accumulation in HepG2 Cells […]

[2] = tested on: hyperlipemia model of mice; assay: TG and cholesterol levels in hepatic tissues of hyperlipemia model mice; format: in vivo; conditions: tail vein, daily for 7 days, FIG. 8
Source text: (§1) The hyperlipemia model of mice is induced by using high-fat feeds, the C57BL/6J mice are purchased from Vital River, male, three weeks old. The formula for the high fat feeds is as below: basic feeds 83.5%, […], 1% cholesterol, 10% pork fat, 0.2% propylthiouracil, 0.3% sodium deoxycholate, 5% sucrose, and it is produced by the experimental animal center of Academy of Military Medical Sciences. The hyperlipemia model of mice is obtained after induction for 3-4 weeks.
After the small interfering nucleotide of FAM3B gene FAM3B-46 is labelled with cholesterol or coated with liposome, it is injected into the hyperlipemia model of mice via their tail veins. The injection is carried out for continuous 7 days with one injection each day and the samples are collected after 7 days. The standard dosages for injection are 2.5 mg, 5 mg and 10 mg for every kilogram of body weight. Other dosages such as 0.1 mg-50 mg small interfering nucleotide for every kilogram of body weight are also under test. The products from Zhongsheng Beikong Biological Technological Co., Ltd. are used as the kit for detecting triglyceride (TG) and cholesterol, and they are determined on a SABA/18 automated biochemical analyzer. The detections are carried out with reference to the instruction for the kits of Biosino Bio-Technology and Science Incorporation. The animals are subjected to fast dieting 16 hours before blood sample collection.

[3] = tested on: hepatic adipose infiltration model mice; assay: hepatic adipose infiltration model in mice (MCD diet), oil red O and HE staining of hepatic sections; format: in vivo; conditions: tail i.v. once every three days, 15 days, 2.5, 5 and 10 mg/kg, FIG. 2
Source text: (1) Induction on hepatic adipose infiltration model in mice. 10 male C57BL/6J mice (purchased from the department of experimental animals, Medical Division of Peking University) with age of 8-10 weeks are divided into two groups (normal diet and MCD diet). MCD (high-fat, methionine-choline deficient) diet is a common program for the investigations on non-alcoholic fatty liver in this field. The hepatic adipose infiltration model in mice is obtained after treatments for 10-16 weeks. (2) Treatments on Hepatic Adipose Infiltration Using Small Interfering Nucleotides
1.2 mg (0.09 μmol) small interfering nucleotides from FAM3B-43 to FAM3B-46 with modification in the example 3 is dissolved in 1.5 ml RNAase free sterilized physiological saline to prepare a solution comprising 60 μmol/L small interfering nucleotides, and it is mixed in certain proportion with the carrier material. The injection is obtained after the mixed small interfering nucleotide is added into 5 ml RNAase free sterile physiological saline (the concentration of the small interfering nucleotide is 0.25 mg/ml). […]

[4] = tested on: FAM3B protein in intestine; assay: FAM3B protein expression in intestine of hyperlipemia model mice; format: in vivo; conditions: tail vein, daily for 7 days
Source text: as §1
(§2) After the small interfering nucleotide of FAM3B gene FAM3B-46 is labelled with cholesterol or coated with liposome, it is injected into the hyperlipemia model of mice via their tail veins. The injection is carried out for continuous 7 days with one injection each day and the samples are collected after 7 days. The standard dosages for injection are 2.5 mg, 5 mg and 10 mg for every kilogram of body weight. Other dosages such as 0.1 mg-50 mg small interfering nucleotide for every kilogram of body weight are also under test.

FAM3B mRNA in intestine = assay: FAM3B mRNA expression in intestine of hyperlipemia model mice; format: in vivo; conditions: tail vein, daily for 7 days, FIG. 7
Source text: as §1, §2

[5] = tested on: FAM3B protein in hepatic tissues; assay: FAM3B protein expression in hepatic tissues of hyperlipemia model mice; format: in vivo; conditions: tail vein, daily for 7 days
Source text: as §1, §2

[6] = tested on: hyperlipemia model of mice; assay: TG and cholesterol levels in blood of hyperlipemia model mice; format: in vivo; conditions: tail vein, daily for 7 days, FIG. 9
Source text: as §1, §2

[7] = standard dosages 2.5, 5, 10 mg/kg
[8] = standard dosages and 10 mg/kilogram body weight

Substance: FAM3B-11: siRNA, human FAM3B; sense 5′-CUCUGGACCGAUGACAAAGdTdT-3′; antisense 5′-CUUUGUCAUCGGUCCAGAGdTdT-3′ (sense CUCUGGACCGAUGACAAAGTT; antisense CUUUGUCAUCGGUCCAGAGTT; sugars from the 5' end r19 d2, backbone not given here)
- inhibition of FAM3B protein expression in HepG2 cells [1]: significantly inhibit

Substance: FAM3B-15: siRNA, human FAM3B; sense 5′-GCACUUGGAAGUAAAGAAAdTdT-3′; antisense 5′-UUUCUUUACUUCCAAGUGCdTdT-3′ (sense GCACUUGGAAGUAAAGAAATT; antisense UUUCUUUACUUCCAAGUGCTT; sugars from the 5' end r19 d2, backbone not given here)
- inhibition of FAM3B protein expression in HepG2 cells [1]: significantly inhibit

Substance: FAM3B-17: siRNA, human FAM3B; sense 5′-GGUCUAGCUGGGUAUUUAUdTdT-3′; antisense 5′-AUAAAUACCCAGCUAGACCdTdT-3′ (sense GGUCUAGCUGGGUAUUUAUTT; antisense AUAAAUACCCAGCUAGACCTT; sugars from the 5' end r19 d2, backbone not given here)
- inhibition of FAM3B protein expression in HepG2 cells [1]: significantly inhibit

Substance: FAM3B-20: siRNA, human FAM3B; sense 5′-GCUAAGAACAACAGAUAUUdTdT-3′; antisense 5′-AAUAUCUGUUGUUCUUAGCdTdT-3′ (sense GCUAAGAACAACAGAUAUUTT; antisense AAUAUCUGUUGUUCUUAGCTT; sugars from the 5' end r19 d2, backbone not given here)
- inhibition of FAM3B protein expression in HepG2 cells [1]: significantly inhibit
- inhibition of fatty deposition in HepG2 cells (HepG2 cells): significantly inhibit fatty deposition

Substance: FAM3B-24: siRNA, human FAM3B; sense 5′-GAGUAAAUGUGUUCUGUAUdTdT-3′; antisense 5′-AUACAGAACACAUUUACUCdTdT-3′ (sense GAGUAAAUGUGUUCUGUAUTT; antisense AUACAGAACACAUUUACUCTT; sugars from the 5' end r19 d2, backbone not given here)
- inhibition of FAM3B protein expression in HepG2 cells [1]: significantly inhibit

Substance: FAM3B-46: chemically modified mouse FAM3B siRNA (2′-O-methyl sense with cholesterol, 2′-fluoro antisense); 5-UCAGAAAUCGAGAGAGAAAdTdT; 5-UUUCUCUCUCGAUUUCUGAdTdT (sense UCAGAAAUCGAGAGAGAAATT; antisense UUUCUCUCUCGAUUUCUGATT; Sense 2'-OMe, antisense 2'-F at italic positions, sense cholesterol at terminus, further chemistry not given here)
- reduction of TG level in hepatic tissues ([2]; 5 mg and 10 mg/kilogram body weight): 20-40%
- reduction of cholesterol level in hepatic tissues ([2]; 10 mg/kilogram body weight): 15-30%
- reduction of TG level in hepatic tissues [2]: significantly reduce
- reduction of cholesterol level in hepatic tissues [2]: significantly reduce
- degree of hepatic adipose infiltration (oil red O and HE staining) [3]: effectively reduce the degree of hepatic adipose infiltration; also recorded: significantly reduced
- reduction of FAM3B protein expression in intestine [4, 7]: 30%
- reduction of FAM3B mRNA expression in intestine (FAM3B mRNA in intestine): significantly inhibit
- reduction of FAM3B mRNA expression in intestine (FAM3B mRNA in intestine; [7]): 45%
- reduction of FAM3B protein expression in hepatic tissues [5, 7]: 40%
- reduction of TG level in blood [6]: significantly reduce
- reduction of cholesterol level in blood [6]: significantly reduce
- reduction of TG level in blood [6, 8]: 25-50%
- reduction of cholesterol level (cholesterol level in blood examined; printed 'in hepatic tissues') [6, 8]: 25-50%

Substance: unrelated small interfering nucleotide: negative control siRNA; sense 5-UUCUCCGAACGUGUCACGUTT-3 (SEQ ID NO: 78); antisense 5-ACGUGACACGUUCGGAGAATT-3 (SEQ ID NO: 79) (chemistry not given here) [reference compound]
- reduction of TG level in hepatic tissues [2]: could not significantly reduce
- reduction of cholesterol level in hepatic tissues [2]: could not significantly reduce
- reduction of FAM3B protein expression in intestine [4]: could not significantly reduce
- reduction of FAM3B mRNA expression in intestine (FAM3B mRNA in intestine): could not significantly reduce
- reduction of FAM3B protein expression in hepatic tissues [5]: could not significantly reduce
- reduction of TG level in blood [6]: could not significantly reduce
- reduction of cholesterol level in blood [6]: could not significantly reduce
